Experimental data reported in ChEMBL document CHEMBL4387740, “Discovery of ABT-957: 1-Benzyl-5-oxopyrrolidine-2-carboxamides as selective calpain inhibitors with enhanced metabolic stability” (Bioorg Med Chem Lett, 2019).
Calls of active or inactive are those of the source. No cut-off for these calls is given here.

Experiments:
Homo sapiens [1] = organism: Homo sapiens; experiment: Selectivity ratio, ratio of Ki for CatB (unknown origin) to Ki for Cal1 (unknown origin)
[2] = target: T1, Calpain-1 catalytic subunit (Homo sapiens, UniProt P07384); experiment: Inhibition of Cal1 (unknown origin)
T1 sequence (P07384 whole entry): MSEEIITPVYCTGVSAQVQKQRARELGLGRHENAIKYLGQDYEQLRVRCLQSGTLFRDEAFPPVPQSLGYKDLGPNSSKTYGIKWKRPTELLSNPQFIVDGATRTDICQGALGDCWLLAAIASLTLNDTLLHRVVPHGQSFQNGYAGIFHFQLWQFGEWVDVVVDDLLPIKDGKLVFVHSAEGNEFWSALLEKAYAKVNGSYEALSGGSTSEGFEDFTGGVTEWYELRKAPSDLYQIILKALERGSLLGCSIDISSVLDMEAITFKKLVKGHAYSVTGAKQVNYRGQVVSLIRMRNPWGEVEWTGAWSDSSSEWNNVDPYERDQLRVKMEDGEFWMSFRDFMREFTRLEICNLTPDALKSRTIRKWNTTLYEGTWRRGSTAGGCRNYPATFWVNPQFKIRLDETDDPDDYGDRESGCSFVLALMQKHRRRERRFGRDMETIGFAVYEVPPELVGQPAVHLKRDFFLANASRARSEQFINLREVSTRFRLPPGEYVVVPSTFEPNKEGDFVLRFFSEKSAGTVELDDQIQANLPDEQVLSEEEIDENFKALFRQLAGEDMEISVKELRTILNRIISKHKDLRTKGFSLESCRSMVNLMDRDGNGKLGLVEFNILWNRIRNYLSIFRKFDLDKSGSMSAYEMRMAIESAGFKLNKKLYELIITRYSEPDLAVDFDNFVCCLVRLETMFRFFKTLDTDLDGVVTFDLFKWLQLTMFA

[3] = Oral bioavailability in rat; type: ADME, organism-based; details: in vivo
Homo sapiens [4] = organism: Homo sapiens; experiment: Selectivity ratio, ratio of Ki for CatK (unknown origin) to Ki for Cal1 (unknown origin)
[5] = Selectivity ratio, ratio of Ki for CatS (unknown origin) to Ki for Cal1 (unknown origin); details: Homo sapiens
[6] = Intrinsic clearance in human liver cytosol; type: ADME, subcellular; details: read-out: CLH
[7] = Intrinsic clearance in human liver microsomes; type: ADME, Microsome; details: read-out: CLH
Homo sapiens [8] = organism: Homo sapiens; experiment: Selectivity ratio, ratio of Ki for CatL (unknown origin) to Ki for Cal1 (unknown origin)
[9] = Intrinsic clearance in cynomolgus monkey liver cytosol; type: ADME, subcellular, Macaca fascicularis; details: read-out: CLH
[10] = Intrinsic clearance in rat liver microsomes; type: ADME, Microsome; details: read-out: CLH
[11] = Metabolic stability in dog hepatocytes; type: ADME, cell-based, Canis lupus familiaris, Hepatocyte
[12] = AUC (0 to infinity) in Beagle dog at 1 mg/kg, iv; type: ADME, organism-based, Canis lupus familiaris; set-up: dose 1 mg/kg, time infinity, route intravenous; details: in vivo
[13] = Metabolic stability in cynomolgus monkey liver microsomes; type: ADME, Macaca fascicularis, Microsome
[14] = Metabolic stability in dog liver microsomes; type: ADME, Canis lupus familiaris, Microsome
BCRP (ABCG2) = target: T2, BCRP (ABCG2) (Homo sapiens, UniProt Q9UNQ0); experiment: Substrate activity at BCRP (unknown origin) expressed in MDCK2 cells assessed as efflux ratio of permeability across basolateral to apical over apical to basolateral side; type: ADME, cell-based
T2 sequence (Q9UNQ0 whole entry): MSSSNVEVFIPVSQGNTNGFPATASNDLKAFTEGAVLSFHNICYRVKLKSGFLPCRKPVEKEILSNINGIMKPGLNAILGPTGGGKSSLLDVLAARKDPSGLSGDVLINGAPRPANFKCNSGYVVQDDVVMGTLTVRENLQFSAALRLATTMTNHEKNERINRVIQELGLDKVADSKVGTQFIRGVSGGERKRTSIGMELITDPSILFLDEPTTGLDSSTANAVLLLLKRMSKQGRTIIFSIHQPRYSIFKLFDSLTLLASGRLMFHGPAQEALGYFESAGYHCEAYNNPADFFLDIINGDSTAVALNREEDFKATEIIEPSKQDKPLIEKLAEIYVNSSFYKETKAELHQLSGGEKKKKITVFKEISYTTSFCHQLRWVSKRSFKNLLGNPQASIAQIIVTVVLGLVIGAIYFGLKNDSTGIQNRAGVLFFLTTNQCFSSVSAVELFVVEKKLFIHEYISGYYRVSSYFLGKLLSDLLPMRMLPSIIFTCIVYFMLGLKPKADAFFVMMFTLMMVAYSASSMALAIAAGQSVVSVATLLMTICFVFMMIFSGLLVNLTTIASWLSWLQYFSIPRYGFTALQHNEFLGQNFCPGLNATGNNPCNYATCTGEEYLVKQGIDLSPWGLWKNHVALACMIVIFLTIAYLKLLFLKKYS

[15] = Elimination half life in Beagle dog at 1 mg/kg, iv; type: ADME, organism-based, Canis lupus familiaris; details: in vivo, read-out: beta t1/2 (converted)
[16] = Intrinsic clearance in rat liver microsomes; details: read-out: CLH
[17] = AUC (0 to infinity) in cynomolgus monkey at 3 mg/kg, po; type: ADME, organism-based, Macaca fascicularis; set-up: dose 3 mg/kg, time infinity, route oral; details: in vivo
[18] = Cmax in CD-1 mouse at 2 mg/kg, po; type: ADME, organism-based; set-up: dose 2 mg/kg, route oral; details: in vivo
[19] = AUC (0 to infinity) in CD-1 mouse at 2 mg/kg, iv; type: ADME, organism-based; set-up: dose 2 mg/kg, route intravenous, time infinity; details: in vivo
[20] = Oral bioavailability in Sprague-Dawley rat at 2 mg/kg; type: ADME, organism-based; details: in vivo
[21] = Metabolic stability in human liver microsomes; type: ADME, Microsome
[22] = Plasma clearance in CD-1 mouse at 2 mg/kg, iv; type: ADME, organism-based
[23] = AUC (0 to infinity) in Beagle dog at 1 mg/kg, po; type: ADME, organism-based, Canis lupus familiaris; set-up: dose 1 mg/kg, time infinity, route oral; details: in vivo
[24] = Elimination half life in CD-1 mouse at 2 mg/kg, po; type: ADME, organism-based; details: in vivo, read-out: beta t1/2 (converted)
[25] = Metabolic stability in human liver cytosol assessed as hydroxyamide metabolite formation; type: ADME, subcellular
[26] = Elimination half life in Sprague-Dawley rat at 2 mg/kg, iv; type: ADME, organism-based; details: in vivo, read-out: beta t1/2 (converted)
P-gp (ABCB1) = P-gp (ABCB1) (Homo sapiens, UniProt P08183); experiment: Substrate activity at P-gp (unknown origin) expressed in MDCK2 cells assessed as efflux ratio of permeability across basolateral to apical over apical to basolateral side; type: ADME, cell-based; details: MDCK-MDR1
Chain of P-gp (ABCB1) (P08183 whole entry): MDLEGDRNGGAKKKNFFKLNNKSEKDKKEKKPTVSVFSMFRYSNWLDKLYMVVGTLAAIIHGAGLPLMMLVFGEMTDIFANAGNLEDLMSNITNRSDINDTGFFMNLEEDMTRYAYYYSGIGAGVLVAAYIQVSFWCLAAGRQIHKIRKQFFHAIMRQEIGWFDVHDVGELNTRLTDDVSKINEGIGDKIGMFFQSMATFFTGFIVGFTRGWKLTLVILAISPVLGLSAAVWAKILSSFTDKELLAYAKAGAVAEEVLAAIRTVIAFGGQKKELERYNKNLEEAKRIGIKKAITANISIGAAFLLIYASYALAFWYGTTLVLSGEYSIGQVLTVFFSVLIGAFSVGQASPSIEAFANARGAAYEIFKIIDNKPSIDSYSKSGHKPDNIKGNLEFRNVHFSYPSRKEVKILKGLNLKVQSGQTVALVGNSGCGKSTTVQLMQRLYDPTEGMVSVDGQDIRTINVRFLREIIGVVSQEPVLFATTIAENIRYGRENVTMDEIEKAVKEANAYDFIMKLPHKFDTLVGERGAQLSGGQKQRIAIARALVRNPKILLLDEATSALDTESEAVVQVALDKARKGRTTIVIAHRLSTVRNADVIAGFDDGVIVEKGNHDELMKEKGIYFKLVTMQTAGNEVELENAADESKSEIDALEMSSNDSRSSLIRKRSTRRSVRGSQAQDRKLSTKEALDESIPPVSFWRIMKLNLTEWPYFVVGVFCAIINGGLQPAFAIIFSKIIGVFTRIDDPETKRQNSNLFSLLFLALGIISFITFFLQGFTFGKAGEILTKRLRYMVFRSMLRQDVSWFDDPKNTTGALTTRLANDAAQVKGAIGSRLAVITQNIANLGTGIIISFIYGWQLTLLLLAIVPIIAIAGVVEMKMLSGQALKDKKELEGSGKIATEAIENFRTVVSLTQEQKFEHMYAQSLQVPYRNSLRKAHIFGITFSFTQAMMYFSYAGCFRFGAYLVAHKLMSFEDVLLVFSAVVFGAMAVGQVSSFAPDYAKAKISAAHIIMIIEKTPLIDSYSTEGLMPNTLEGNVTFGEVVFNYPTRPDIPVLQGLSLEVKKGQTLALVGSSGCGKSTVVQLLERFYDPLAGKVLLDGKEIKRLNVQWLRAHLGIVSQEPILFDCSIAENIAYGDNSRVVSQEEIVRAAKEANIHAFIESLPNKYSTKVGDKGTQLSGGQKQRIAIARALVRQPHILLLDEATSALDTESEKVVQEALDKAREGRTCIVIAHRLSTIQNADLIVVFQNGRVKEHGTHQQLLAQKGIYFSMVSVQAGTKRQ

[27] = Apparent permeability in human Caco2 cells; type: ADME, cell-based; details: Caco-2, read-out: permeability
Hippocampus [28] = experiment: Inhibition of amyloid beta oligomer-induced reduction of synaptic transmission in rat hippocampal slices assessed as increase in glutamatergic synaptic strength at 100 nM; type: functional, tissue-based
[29] = Metabolic stability in rat hepatocytes; type: ADME, cell-based, Hepatocyte
[30] = Elimination half life in Beagle dog at 1 mg/kg, po; type: ADME, organism-based, Canis lupus familiaris; details: in vivo, read-out: beta t1/2 (converted)
[31] = Cmax in Sprague-Dawley rat at 2 mg/kg, po; type: ADME, organism-based; set-up: dose 2 mg/kg, route oral; details: in vivo
[32] = Elimination half life in cynomolgus monkey at 3 mg/kg, po; type: ADME, organism-based, Macaca fascicularis; details: in vivo, read-out: beta t1/2 (converted)
[33] = Metabolic stability in rat liver microsomes; type: ADME, Microsome
[34] = Volume of distribution at steady state in cynomolgus monkey at 1 mg/kg, iv; type: ADME, organism-based, Macaca fascicularis; details: in vivo, read-out: Vdss
[35] = Volume of distribution at steady state in CD-1 mouse at 2 mg/kg, iv; type: ADME, organism-based; details: in vivo, read-out: Vdss
[36] = Metabolic stability in cynomolgus monkey liver cytosol assessed as hydroxyamide metabolite formation; type: ADME, subcellular, Macaca fascicularis
[37] = AUC (0 to infinity) in Sprague-Dawley rat at 2 mg/kg, iv; type: ADME, organism-based; set-up: dose 2 mg/kg, time infinity, route intravenous; details: in vivo
Hippocampus [38] = experiment: Inhibition of NMDA-induced spectrin degradation in rat hippocampal slices; type: functional, tissue-based
[39] = Plasma clearance in cynomolgus monkey at 1 mg/kg, iv; type: ADME, organism-based, Macaca fascicularis
[40] = AUC (0 to infinity) in Sprague-Dawley rat at 2 mg/kg, po; type: ADME, organism-based; set-up: dose 2 mg/kg, time infinity, route oral; details: in vivo
[41] = AUC (0 to infinity) in CD-1 mouse at 2 mg/kg, po; type: ADME, organism-based; set-up: dose 2 mg/kg, route oral, time infinity; details: in vivo
[42] = Elimination half life in Sprague-Dawley rat at 2 mg/kg, po; type: ADME, organism-based; details: in vivo, read-out: beta t1/2 (converted)
[43] = Elimination half life in cynomolgus monkey at 1 mg/kg, iv; type: ADME, organism-based, Macaca fascicularis; details: in vivo, read-out: beta t1/2 (converted)
[44] = Volume of distribution at steady state in Sprague-Dawley rat at 2 mg/kg, iv; type: ADME, organism-based; details: in vivo, read-out: Vdss
[45] = Volume of distribution at steady state in Beagle dog at 1 mg/kg, iv; type: ADME, organism-based, Canis lupus familiaris; details: in vivo, read-out: Vdss
[46] = Plasma clearance in Sprague-Dawley rat at 2 mg/kg, iv; type: ADME, organism-based
[47] = Oral bioavailability in CD-1 mouse at 2 mg/kg; type: ADME, organism-based; details: in vivo
[48] = Cmax in cynomolgus monkey at 3 mg/kg, po; type: ADME, organism-based, Macaca fascicularis; set-up: dose 3 mg/kg, route oral; details: in vivo
[49] = AUC (0 to infinity) in cynomolgus monkey at 1 mg/kg, iv; type: ADME, organism-based, Macaca fascicularis; set-up: dose 1 mg/kg, time infinity, route intravenous; details: in vivo
[50] = Fraction unbound in human plasma; type: ADME, cell-free
[51] = Oral bioavailability in Beagle dog at 1 mg/kg; type: ADME, organism-based, Canis lupus familiaris; details: in vivo
[52] = Oral bioavailability in cynomolgus monkey at 3 mg/kg; type: ADME, organism-based, Macaca fascicularis; details: in vivo
[53] = Metabolic stability in cynomolgus monkey hepatocytes; type: ADME, cell-based, Macaca fascicularis, Hepatocyte
[54] = Elimination half life in CD-1 mouse at 2 mg/kg, iv; type: ADME, organism-based; details: in vivo, read-out: beta t1/2 (converted)
[55] = Plasma clearance in Beagle dog at 1 mg/kg, iv; type: ADME, organism-based, Canis lupus familiaris
[56] = Cmax in Beagle dog at 1 mg/kg, po; type: ADME, organism-based, Canis lupus familiaris; set-up: dose 1 mg/kg, route oral; details: in vivo
[57] = Metabolic stability in human hepatocytes; type: ADME, cell-based, Hepatocyte

NC(=O)C(=O)C(Cc1ccccc1)NC(=O)[C@H]1CCC(=O)N1Cc1ccccc1 (mixture of isomers)
Selectivity ratio (Homo sapiens [1]): 23 | Ki [2]: 39 nM | bioavailability [3]: 45% | Selectivity ratio (Homo sapiens [4]): 22 | Selectivity ratio [5]: 103 | microsomal CLint [6]: > 70 µL/min/mg | microsomal CLint [7]: 27 µL/min/mg | Selectivity ratio (Homo sapiens [8]): 15 | microsomal CLint [9]: 185 µL/min/mg | microsomal CLint [10]: < 23 µL/min/mg

O=C(NC1CC1)C(=O)C(Cc1ccccc1)NC(=O)[C@H]1CCC(=O)N1Cc1ccccc1 (some centres not stated)
Stability [11]: Stable | AUC(0-inf) [12]: 1820 ng·h/mL | Stability [13]: Stable | Stability [14]: Stable | efflux ratio (BCRP (ABCG2)): 0.9 | half-life [15]: 1.7 h | Selectivity ratio (Homo sapiens [1]): 42 | microsomal CLint [16]: < 23 µL/min/mg | Ki [2]: 130 nM | AUC(0-inf) [17]: 220 ng·h/mL | Cmax [18]: 2300 ng/mL | AUC(0-inf) [19]: 15400 ng·h/mL | bioavailability [20]: 99.6% | Stability [21]: Stable | clearance [22]: 2.17 mL/min/kg | AUC(0-inf) [23]: 1510 ng·h/mL | half-life [24]: 5 h | Stability [25]: Stable | Selectivity ratio (Homo sapiens [4]): 74 | half-life [26]: 6.6 h | efflux ratio (P-gp (ABCB1)): 10.5 | Papp [27]: 9.4 ×10⁻⁶ cm/s | inhibition (Hippocampus [28]): Active | Selectivity ratio [5]: > 100 | Stability [29]: Stable | half-life [30]: 4.8 h | microsomal CLint [6]: < 1 µL/min/mg | microsomal CLint [7]: 28 µL/min/mg | Cmax [31]: 530 ng/mL | half-life [32]: 1.3 h | Stability [33]: Stable | Vd [34]: 1.8 L/kg | Vd [35]: 1 L/kg | Stability [36]: Stable | Selectivity ratio (Homo sapiens [8]): 42 | AUC(0-inf) [37]: 1930 ng·h/mL | IC50 (Hippocampus [38]): 385 nM | clearance [39]: 33 mL/min/kg | AUC(0-inf) [40]: 1910 ng·h/mL | AUC(0-inf) [41]: 14500 ng·h/mL | half-life [42]: 5.1 h | half-life [43]: 2.3 h | Vd [44]: 3.4 L/kg | Vd [45]: 0.6 L/kg | clearance [46]: 17.3 mL/min/kg | bioavailability [47]: 93.5% | Cmax [48]: 98 ng/mL | AUC(0-inf) [49]: 510 ng·h/mL | fraction unbound [50]: 0.3 | bioavailability [51]: 83.1% | bioavailability [52]: 14.3% | Stability [53]: Stable | half-life [54]: 6 h | clearance [55]: 10.2 mL/min/kg | Cmax [56]: 980 ng/mL | microsomal CLint [10]: < 23 µL/min/mg | Stability [57]: Stable
